In ChEMBL document CHEMBL3885881, “DrugMatrix”:

Species: Rattus norvegicus
Assay: DrugMatrix - Regimen: Daily Repeat
Type: toxicity, organism-based, Sprague-Dawley
Set-up: regimen Daily Repeat, gender Male, age 6-8 weeks
Conditions: in vivo, po, route oral GAVAGE, […]; for ABSOLUTE BASOPHIL / ABSOLUTE EOSINOPHIL / ABSOLUTE LYMPHOCYTE / ABSOLUTE MONOCYTE / ABSOLUTE SEGMENTED NEUTROPHIL / BASOPHIL / EOSINOPHIL / ERYTHROCYTE COUNT / HEMATOCRIT / HEMOGLOBIN / LEUKOCYTE COUNT / LYMPHOCYTE / MEAN CORPUSCULAR HEMOGLOBIN / MEAN CORPUSCULAR HEMOGLOBIN CONCENTRATION / MEAN CORPUSCULAR VOLUME / MONOCYTE / NEUTROPHIL / NUCLEATED RED BLOOD CELLS / PLATELET COUNT: tissue Blood; for ALANINE AMINOTRANSFERASE / ALBUMIN / ALKALINE PHOSPHATASE / ASPARTATE AMINOTRANSFERASE / BLOOD UREA NITROGEN / CARBON DIOXIDE / CHLORIDE / CHOLESTEROL / CREATINE PHOSPHOKINASE / CREATININE / GLUCOSE / LACTATE DEHYDROGENASE / LIPASE / PHOSPHORUS / POTASSIUM / SODIUM / TOTAL BILIRUBIN / TOTAL PROTEIN / URIC ACID: tissue Plasma
[1] = 0 mg/kg, 72 h, dose level Control, time 3 day
[2] = 0 mg/kg, 120 h, dose level Control, time 5 day
[3] = 0.6 mg/kg, 72 h, dose level Low, time 3 day

With O=C(O)CCCc1ccc(N(CCCl)CCCl)cc1 [CHLORAMBUCIL] the “ABSOLUTE BASOPHIL” value [1] was 0 CELLS/uL, the “ABSOLUTE EOSINOPHIL” value [1] was 104.17 CELLS/uL and the “ABSOLUTE LYMPHOCYTE” value [1] was 14547 CELLS/uL. For the same molecule, the “ABSOLUTE MONOCYTE” value [1] was 292 CELLS/uL, the “ABSOLUTE SEGMENTED NEUTROPHIL” value [1] was 1640.17 CELLS/uL and the BASOPHIL [1] was 0%. The EOSINOPHIL [1] was 0.67%, the “ERYTHROCYTE COUNT” value [1] was 5.35 x10E6/uL and the HEMATOCRIT [1] was 33.67%. The HEMOGLOBIN [1] was 13.38 G/DL, the “LEUKOCYTE COUNT” value [1] was 16.58 x10E3/uL and the LYMPHOCYTE [1] was 87.5%. For the same molecule, the “MEAN CORPUSCULAR HEMOGLOBIN” value [1] was 25.05 pg, the “MEAN CORPUSCULAR HEMOGLOBIN CONCENTRATION” value [1] was 39.78 G/DL and the “MEAN CORPUSCULAR VOLUME” value [1] was 62.97 fL. For the same molecule, the MONOCYTE [1] was 1.83%, the NEUTROPHIL [1] was 10% and the “NUCLEATED RED BLOOD CELLS” value [1] was 0 /100WBC. The “PLATELET COUNT” value [1] was 1274.5 x10E3/uL, the “ALANINE AMINOTRANSFERASE” value [1] was 76.83 u/L and the ALBUMIN [1] was 3.97 G/DL. For the same molecule, the “ALKALINE PHOSPHATASE” value [1] was 347 u/L, the “ASPARTATE AMINOTRANSFERASE” value [1] was 97.17 u/L and the “BLOOD UREA NITROGEN” value [1] was 14.33 mg/dL. For the same molecule, the “CARBON DIOXIDE” value [1] was 25.5 mmol/L, the CHLORIDE [1] was 100.33 MEQ/L and the CHOLESTEROL [1] was 68.67 mg/dL. For the same molecule, the “CREATINE PHOSPHOKINASE” value [1] was 659.17 u/L, the CREATININE [1] was 0.32 mg/dL and the GLUCOSE [1] was 160.67 mg/dL. For the same molecule, the “LACTATE DEHYDROGENASE” value [1] was 271.5 u/L, the LIPASE [1] was 11.67 u/L and the PHOSPHORUS [1] was 10.65 mg/dL. The POTASSIUM [1] was 5.95 MEQ/L, the SODIUM [1] was 139.65 MEQ/L and the “TOTAL BILIRUBIN” value [1] was 0.2 mg/dL. The “TOTAL PROTEIN” value [1] was 5.72 G/DL, the “URIC ACID” value [1] was 1.37 mg/dL and the “ABSOLUTE BASOPHIL” value [2] was 0 CELLS/uL. For the same molecule, the “ABSOLUTE EOSINOPHIL” value [2] was 331.5 CELLS/uL, the “ABSOLUTE LYMPHOCYTE” value [2] was 15021.67 CELLS/uL and the “ABSOLUTE MONOCYTE” value [2] was 376.5 CELLS/uL. For the same molecule, the “ABSOLUTE SEGMENTED NEUTROPHIL” value [2] was 3070.33 CELLS/uL, the BASOPHIL [2] was 0% and the EOSINOPHIL [2] was 1.83%. The “ERYTHROCYTE COUNT” value [2] was 5.24 x10E6/uL, the HEMATOCRIT [2] was 33.22% and the HEMOGLOBIN [2] was 13.2 G/DL. For the same molecule, the “LEUKOCYTE COUNT” value [2] was 18.8 x10E3/uL, the LYMPHOCYTE [2] was 79.67% and the “MEAN CORPUSCULAR HEMOGLOBIN” value [2] was 25.17 pg. The “MEAN CORPUSCULAR HEMOGLOBIN CONCENTRATION” value [2] was 39.73 G/DL, the “MEAN CORPUSCULAR VOLUME” value [2] was 63.38 fL and the MONOCYTE [2] was 2%. The NEUTROPHIL [2] was 16.5%, the “NUCLEATED RED BLOOD CELLS” value [2] was 0 /100WBC and the “PLATELET COUNT” value [2] was 1142.67 x10E3/uL. The “ALANINE AMINOTRANSFERASE” value [2] was 52.5 u/L, the ALBUMIN [2] was 3.9 G/DL and the “ALKALINE PHOSPHATASE” value [2] was 284.5 u/L. The “ASPARTATE AMINOTRANSFERASE” value [2] was 81.33 u/L, the “BLOOD UREA NITROGEN” value [2] was 16 mg/dL and the “CARBON DIOXIDE” value [2] was 25.33 mmol/L. For the same molecule, the CHLORIDE [2] was 99.5 MEQ/L, the CHOLESTEROL [2] was 74.83 mg/dL and the “CREATINE PHOSPHOKINASE” value [2] was 448.33 u/L. For the same molecule, the CREATININE [2] was 0.37 mg/dL, the GLUCOSE [2] was 164.17 mg/dL and the “LACTATE DEHYDROGENASE” value [2] was 290.67 u/L. For the same molecule, the LIPASE [2] was 6.83 u/L, the PHOSPHORUS [2] was 11.5 mg/dL and the POTASSIUM [2] was 6.28 MEQ/L. For the same molecule, the SODIUM [2] was 139.5 MEQ/L, the “TOTAL BILIRUBIN” value [2] was 0.13 mg/dL and the “TOTAL PROTEIN” value [2] was 5.55 G/DL. The “URIC ACID” value [2] was 1.12 mg/dL, the “ABSOLUTE BASOPHIL” value [3] was 0 CELLS/uL and the “ABSOLUTE EOSINOPHIL” value [3] was 134 CELLS/uL. The “ABSOLUTE LYMPHOCYTE” value [3] was 11100 CELLS/uL, the “ABSOLUTE MONOCYTE” value [3] was 438.67 CELLS/uL and the “ABSOLUTE SEGMENTED NEUTROPHIL” value [3] was 1260.67 CELLS/uL. The BASOPHIL [3] was 0%, the EOSINOPHIL [3] was 1% and the “ERYTHROCYTE COUNT” value [3] was 5.4 x10E6/uL. For the same molecule, the HEMATOCRIT [3] was 34.47%, the HEMOGLOBIN [3] was 13.6 G/DL and the “LEUKOCYTE COUNT” value [3] was 12.93 x10E3/uL. For the same molecule, the LYMPHOCYTE [3] was 86%, the “MEAN CORPUSCULAR HEMOGLOBIN” value [3] was 25.2 pg and the “MEAN CORPUSCULAR HEMOGLOBIN CONCENTRATION” value [3] was 39.43 G/DL. The “MEAN CORPUSCULAR VOLUME” value [3] was 63.87 fL, the MONOCYTE [3] was 3.33% and the NEUTROPHIL [3] was 9.67%. For the same molecule, the “NUCLEATED RED BLOOD CELLS” value [3] was 0 /100WBC, the “PLATELET COUNT” value [3] was 1307.67 x10E3/uL and the “ALANINE AMINOTRANSFERASE” value [3] was 68 u/L. The ALBUMIN [3] was 3.93 G/DL, the “ALKALINE PHOSPHATASE” value [3] was 423 u/L and the “ASPARTATE AMINOTRANSFERASE” value [3] was 81.33 u/L. The “BLOOD UREA NITROGEN” value [3] was 13.33 mg/dL, the “CARBON DIOXIDE” value [3] was 25.33 mmol/L and the CHLORIDE [3] was 101 MEQ/L. For the same molecule, the CHOLESTEROL [3] was 71 mg/dL, the “CREATINE PHOSPHOKINASE” value [3] was 316.67 u/L and the CREATININE [3] was 0.26 mg/dL. The GLUCOSE [3] was 153.33 mg/dL, the “LACTATE DEHYDROGENASE” value [3] was 99.67 u/L and the LIPASE [3] was 13 u/L. It also gave a PHOSPHORUS [3] of 11.17 mg/dL, a POTASSIUM [3] of 5.8 MEQ/L and an SODIUM [3] of 140.37 MEQ/L. For the same molecule, the “TOTAL BILIRUBIN” value [3] was 0.17 mg/dL, the “TOTAL PROTEIN” value [3] was 5.67 G/DL and the “URIC ACID” value [3] was 1.1 mg/dL.
